Data published in patent publication US20210371351A1, “MIXTURES COMPRISING AT LEAST TWO DIFFERENT NITRIFICATION INHIBITORS SELECTED FROM 2-(3,4-DIMETHYL-1H-PYRAZOL-1-YL)SUCCINIC ACID (DMPSA), 3,4-DIMETHYL PYRAZOLIUM GLYCOLATE (DMPG) AND OTHER COMPOUNDS” (BASF SE, priority 2017, published 2021).

Test system: nitrification
Test: Example 4: soil column trial (soil Limburgerhof), DMPSA and DMPP, other weight ratios; incubation 10 d at 15° C.; % inhibition of NO3-N formation (Böhland), Colby
Settings: 10 days of incubation at 15° C.; 0.005% DMPP, 0.45% DMPSA
From the text: The effect on NH4+ retention and NH4+ to NO3− ratios in the soil after fertilization of ammonium sulfate with the addition of DMPP, DMPSA or a combination of DMPP and DMPSA was investigated in column trials simulating climatic conditions of spring time in central Europe. Soil Limburgerhof (pH(CaCl2) 6.8, texture: 73% sand; 24% silt, 3% clay) was filled dry into a glass column with an inner width of 4 cm. At the bottom 0.4 g cotton wool was placed above which a frit (Co. Robu, pore size 1) was placed above which 100 g of 2 mm sieved soil Limburgerhof was layered. The soil height in the column was about 7 cm. Before fertilization the soil was brought to about 60% of its water holding capacity (WHC) be adding 14.4 mL of deionized water. Per column 10 mg NH4—N as ammonium sulfate was fertilized or not (control) together or not with 0.005% or 0.015% DMPP (DMPP obtained from BASF SE), 0.45% DMPSA (DMPSA used as free acid obtained from BASF SE) and […] or 0.015% DMPP plus 0.45% DMPSA (% of nitrification inhibitor w/w of NH4-N). Every treatment was replicated three times. After fertilization, 50 mL demineralized water was carefully and slowly placed on top of each column which equals about 31 mm precipitation. After 24 h the eluate was collected and by sucking off the soil to bring it back to about 60% of its WHC. All handlings including soil preparation, fertilization and the temperature of the water for both wetting the soil and the artificial precipitation up to the collection of the eluate 24 h after fertilization was performed at 5° C.
Thereafter, the columns were incubated for 10 d or 20 d at constantly 15° C. in an incubator. After 7 d and 14 d water was added by weight where needed to bring the soils uniformly to 60% WHC. After 10 d or 20 d the soil was removed from the columns and extracted with 1% (w/w) K2SO4 solution by shaking for 2 h at room temperature. The filtrated extract was then analyzed for NH4+ and NO3− colorimetrical by an autoanalyzer.
To calculate the inhibition of nitrate formation by the nitrification inhibitors during the incubation, the above-mentioned Böhland equation was used. To examine synergistic effects of the combination of DMPP+DMPSA the formula by Colby (Colby, S.R., “Calculating synergistic and antagonistic responses of herbicide Combinations”, Weeds, 15, pp. 20-22, 1967) was used. To determine background levels of NH4+ to NO3−, every treatment was also extracted immediately after fertilization and after leaching prior to the further incubation at 15° C. for 10 d or 20 d.

## 2-(3,4-dimethyl-1H-pyrazol-1-yl)succinic acid and/or 2-(4,5-dimethyl-1H-pyrazol-1-yl)succinic acid [DMPSA]
  During incubation: % inhibition of NO3—N formation by NI acc. to Böhland equation (1973) (MV): 22.9%
  Net NI effect % NH4 from fertilized NH4 (MV): 9.36%
  Ratio NH4—N/NO3—N (MV): 0.20
  Soil mg/100 g NH4—N (MV): 0.96 mg/100 g
  Soil mg/100 g NO3—N (MV): 5.15 mg/100 g
